PubChem BioAssay AID1963439 (Molecular Pharmacology Branch, DTP, NCI, 2024)
Where “and” joins values, the source holds several entries; their conditions need not be identical. Identical values can stand only once.

System: NCI-H196 complex spheroids with HUVEC/MSC, growth % T/C
Assay: Anticancer human tumor NCI-H196 cell line growth inhibition [Asc];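 further: spheroids exposed to compound for 7 days before measurement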;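 on viability, T/C: 100% = DMSO vehicle control wells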
Settings: for viability, T/C: stronger effect = lower value
Summary of the method: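 Tumor cells were grown as multicellular spheroids with stromal HUVEC and mesenchymal stem cells and treated singly or in combination. Concentrations fell in half-log steps from the clinical Cmax, or from 10 microM where none was known.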

[1] = curve of first compound, second compound 0.01 µM
[2] = curve of first compound, second compound 0.0316 µM
[3] = curve of first compound, second compound 0.1 µM
[4] = curve of first compound, second compound 0.316 µM
[5] = curve of first compound, second compound 1 µM

CCN1CCN(Cc2ccc(Nc3ncc(F)c(-c4cc(F)c5nc(C)n(C(C)C)c5c4)n3)nc2)CC1 + CNC(C)C(=O)NC1CN(S(=O)(=O)c2cccc(S(=O)(=O)N3CCC4CCC(C(=O)NC(c5ccccc5)c5ccccc5)N4C(=O)C(NC(=O)C(C)NC)C3)c2)CCC2CCC(C(=O)NC(c3ccccc3)c3ccccc3)N2C1=O
IC50 [1]: < 3.16 nM | IC50 [2]: < 3.16 nM | IC50 [3]: < 3.16 nM | IC50 [4]: < 3.16 nM | IC50 [5]: < 3.16 nM | viability, T/C (second compound 0.01 µM, first compound 0.00316 µM): 5.3% | viability, T/C (second compound 0.01 µM, first compound 0.01 µM): 6.9% | viability, T/C (second compound 0.01 µM, first compound 0.0316 µM): 9.46% | viability, T/C (second compound 0.01 µM, first compound 0.1 µM): 7.15% | viability, T/C (second compound 0.01 µM, first compound 0.316 µM): 6.5% | viability, T/C (second compound 0.01 µM, first compound 1 µM): 5.95% | viability, T/C (second compound 0.0316 µM, first compound 0.00316 µM): 4.57% | viability, T/C (second compound 0.0316 µM, first compound 0.01 µM): 4.1% | viability, T/C (second compound 0.0316 µM, first compound 0.0316 µM): 3.84% | viability, T/C (second compound 0.0316 µM, first compound 0.1 µM): 4.62% | viability, T/C (second compound 0.0316 µM, first compound 0.316 µM): 6.92% | viability, T/C (second compound 0.0316 µM, first compound 1 µM): 5.07% | viability, T/C (second compound 0.1 µM, first compound 0.00316 µM): 3.7% | viability, T/C (second compound 0.1 µM, first compound 0.01 µM): 4.39% | viability, T/C (second compound 0.1 µM, first compound 0.0316 µM): 3.41% | viability, T/C (second compound 0.1 µM, first compound 0.1 µM): 3.01% | viability, T/C (second compound 0.1 µM, first compound 0.316 µM): 4.87% | viability, T/C (second compound 0.1 µM, first compound 1 µM): 3.86% | viability, T/C (second compound 0.316 µM, first compound 0.00316 µM): 2.69% | viability, T/C (second compound 0.316 µM, first compound 0.01 µM): 4.01% | viability, T/C (second compound 0.316 µM, first compound 0.0316 µM): 3.79% | viability, T/C (second compound 0.316 µM, first compound 0.1 µM): 4.21% | viability, T/C (second compound 0.316 µM, first compound 0.316 µM): 3.33% | viability, T/C (second compound 0.316 µM, first compound 1 µM): 3.67% | viability, T/C (second compound 1 µM, first compound 0.00316 µM): 2.84% | viability, T/C (second compound 1 µM, first compound 0.01 µM): 3.75% | viability, T/C (second compound 1 µM, first compound 0.0316 µM): 3.08% | viability, T/C (second compound 1 µM, first compound 0.1 µM): 3.26% | viability, T/C (second compound 1 µM, first compound 0.316 µM): 3.93% | viability, T/C (second compound 1 µM, first compound 1 µM): 3.85%

CNC(C)C(=O)NC1CN(S(=O)(=O)c2cccc(S(=O)(=O)N3CCC4CCC(C(=O)NC(c5ccccc5)c5ccccc5)N4C(=O)C(NC(=O)C(C)NC)C3)c2)CCC2CCC(C(=O)NC(c3ccccc3)c3ccccc3)N2C1=O (stereo not drawn)
viability, T/C (compound 0.00316 µM): 38.2% and 43% | viability, T/C (compound 0.01 µM): 7.09% [middle of 14 runs] | viability, T/C (compound 0.0316 µM): 5.61% [middle of 14 runs] | viability, T/C (compound 0.1 µM): 3.73% [middle of 14 runs] | viability, T/C (compound 0.316 µM): 3.32% [middle of 13 runs] | viability, T/C (compound 1 µM): 2.97% [middle of 14 runs] | IC50 (compound alone, run of 10/03/2022): < 10 nM | IC50 (curve of compound): < 3.16 nM

Cc1nc(N2CCC3(CC2)COC(C)C3N)c(CO)nc1Sc1ccnc(N)c1Cl (stereo not drawn) + CNC(C)C(=O)NC1CN(S(=O)(=O)c2cccc(S(=O)(=O)N3CCC4CCC(C(=O)NC(c5ccccc5)c5ccccc5)N4C(=O)C(NC(=O)C(C)NC)C3)c2)CCC2CCC(C(=O)NC(c3ccccc3)c3ccccc3)N2C1=O
IC50 [1]: < 9.49 nM | IC50 [2]: < 9.49 nM | IC50 [3]: < 9.49 nM | IC50 [4]: < 9.49 nM | IC50 [5]: < 9.49 nM | viability, T/C (second compound 0.01 µM, first compound 0.00949 µM): 11% | viability, T/C (second compound 0.01 µM, first compound 0.03 µM): 7.94% | viability, T/C (second compound 0.01 µM, first compound 0.0949 µM): 5.15% | viability, T/C (second compound 0.01 µM, first compound 0.3 µM): 6.8% | viability, T/C (second compound 0.01 µM, first compound 0.949 µM): 6.64% | viability, T/C (second compound 0.01 µM, first compound 3 µM): 6.64% | viability, T/C (second compound 0.0316 µM, first compound 0.00949 µM): 4.39% | viability, T/C (second compound 0.0316 µM, first compound 0.03 µM): 3.45% | viability, T/C (second compound 0.0316 µM, first compound 0.0949 µM): 4.36% | viability, T/C (second compound 0.0316 µM, first compound 0.3 µM): 3.89% | viability, T/C (second compound 0.0316 µM, first compound 0.949 µM): 4.66% | viability, T/C (second compound 0.0316 µM, first compound 3 µM): 4.54% | viability, T/C (second compound 0.1 µM, first compound 0.00949 µM): 3.47% | viability, T/C (second compound 0.1 µM, first compound 0.03 µM): 3.41% | viability, T/C (second compound 0.1 µM, first compound 0.0949 µM): 4.81% | viability, T/C (second compound 0.1 µM, first compound 0.3 µM): 3.67% | viability, T/C (second compound 0.1 µM, first compound 0.949 µM): 3.69% | viability, T/C (second compound 0.1 µM, first compound 3 µM): 3.62% | viability, T/C (second compound 0.316 µM, first compound 0.00949 µM): 3.86% | viability, T/C (second compound 0.316 µM, first compound 0.03 µM): 6.04% | viability, T/C (second compound 0.316 µM, first compound 0.0949 µM): 2.84% | viability, T/C (second compound 0.316 µM, first compound 0.3 µM): 2.59% | viability, T/C (second compound 0.316 µM, first compound 0.949 µM): 3.03% | viability, T/C (second compound 0.316 µM, first compound 3 µM): 3.1% | viability, T/C (second compound 1 µM, first compound 0.00949 µM): 4.12% | viability, T/C (second compound 1 µM, first compound 0.03 µM): 2.58% | viability, T/C (second compound 1 µM, first compound 0.0949 µM): 2.94% | viability, T/C (second compound 1 µM, first compound 0.3 µM): 2.39% | viability, T/C (second compound 1 µM, first compound 0.949 µM): 2.12% | viability, T/C (second compound 1 µM, first compound 3 µM): 1.83%

C=C(F)C(=O)N1CCN(c2nc(OCC3CCCN3C)nc3c2CCN(c2cccc4cccc(Cl)c24)C3)CC1CC#N (stereo not drawn) + CCN1C(C(=O)NC23CCC(C(=O)O)(CC2)CC3)C(c2cccc(Cl)c2F)C2(C(=O)Nc3cc(Cl)ccc32)C12CCCCC2
IC50 (curve of first compound, second compound 0.03 µM): > 10000 nM | IC50 (curve of first compound, second compound 0.0949 µM): > 10000 nM | IC50 (curve of first compound, second compound 0.3 µM): > 10000 nM | IC50 (curve of first compound, second compound 0.949 µM): > 10000 nM | IC50 (curve of first compound, second compound 3 µM): > 10000 nM | viability, T/C (second compound 0.03 µM, first compound 0.0316 µM): 124% | viability, T/C (second compound 0.03 µM, first compound 0.1 µM): 106% | viability, T/C (second compound 0.03 µM, first compound 0.316 µM): 108% | viability, T/C (second compound 0.03 µM, first compound 1 µM): 102% | viability, T/C (second compound 0.03 µM, first compound 3.16 µM): 108% | viability, T/C (second compound 0.03 µM, first compound 10 µM): 93.2% | viability, T/C (second compound 0.0949 µM, first compound 0.0316 µM): 112% | viability, T/C (second compound 0.0949 µM, first compound 0.1 µM): 107% | viability, T/C (second compound 0.0949 µM, first compound 0.316 µM): 113% | viability, T/C (second compound 0.0949 µM, first compound 1 µM): 101% | viability, T/C (second compound 0.0949 µM, first compound 3.16 µM): 109% | viability, T/C (second compound 0.0949 µM, first compound 10 µM): 96.2% | viability, T/C (second compound 0.3 µM, first compound 0.0316 µM): 108% | viability, T/C (second compound 0.3 µM, first compound 0.1 µM): 114% | viability, T/C (second compound 0.3 µM, first compound 0.316 µM): 103% | viability, T/C (second compound 0.3 µM, first compound 1 µM): 115% | viability, T/C (second compound 0.3 µM, first compound 3.16 µM): 110% | viability, T/C (second compound 0.3 µM, first compound 10 µM): 98.1% | viability, T/C (second compound 0.949 µM, first compound 0.0316 µM): 115% | viability, T/C (second compound 0.949 µM, first compound 0.1 µM): 119% | viability, T/C (second compound 0.949 µM, first compound 0.316 µM): 117% | viability, T/C (second compound 0.949 µM, first compound 1 µM): 106% | viability, T/C (second compound 0.949 µM, first compound 3.16 µM): 114% | viability, T/C (second compound 0.949 µM, first compound 10 µM): 105% | viability, T/C (second compound 3 µM, first compound 0.0316 µM): 135% | viability, T/C (second compound 3 µM, first compound 0.1 µM): 119% | viability, T/C (second compound 3 µM, first compound 0.316 µM): 117% | viability, T/C (second compound 3 µM, first compound 1 µM): 120% | viability, T/C (second compound 3 µM, first compound 3.16 µM): 112% | viability, T/C (second compound 3 µM, first compound 10 µM): 114%
